In patent publication US7807176B2, “Polypeptide promoting vascular endothelial cell growth” (Genomidea, Inc., priority 2004, dated 2010):
“Also recorded” adds a separate entry of the source.

Experiments:
c-fos promoter = c-fos promoter assay (c-fos-Luci luciferase); type: cell-based, bovine; details: FIG. 8
Description: To further confirm the proliferation ability, an assay using a promoter of proto-oncogene c-fos, which is activated in the earliest stage of cell proliferation, was carried out. The gene c-fos-Luci having luciferase ligated under this promoter, and a candidate gene, were introduced in a weight ratio of 1:1 by lipofection into bovine vascular endothelial cells, and after 24 to 48 hours, the luciferase activity was measured.

tube formation = assay: Tube formation, Kurabo Angiogenesis kit with CD31 staining and image quantification; type: cell-based, human; details: for tube Area % Increase / tube Length % Increase: Table 2; for Area (% increase): Example 5, Table 4; for Length (% increase): Example 5, Table 5
Description: Using a Kurabo Angiogenesis kit (KZ-1000, Kurabo Industries Ltd.), tube formation was examined. A blank, vascular endothelial growth factor-A protein (VEGF-A), pVEGF plasmid (plasmid containing a gene encoding vascular endothelial growth factor), and pSPORT1 (a plasmid not containing a gene encoding vascular endothelial growth factor) were used as controls. […]
Culture was carried out at 37° C. in a 5% CO2 incubator. The medium was exchanged on the 4th, 7th and 9th days of culture with a fresh medium containing the same additives.
CD31 (PECAM-1) staining primary antibody (mouse anti-human CD31 antibody) was diluted 4,000-fold with a blocking solution (Dulbecco's phosphate buffer solution (PBS(−)) containing 1% BSA). 0.5 ml of this primary antibody solution was added to each well and incubated for 60 minutes at 37° C. After incubation was finished, each well was washed 3 times with 1 ml blocking solution.
Then, 0.5 ml of a secondary antibody (goat anti-mouse IgG/alkali phosphatase conjugate) solution, diluted 500-fold with the blocking solution, was added to each well and incubated for 60 minutes at 37° C., and each well was washed 3 times with 1 ml distilled water. Separately, 2 tablets of BCIP/NBT were dissolved in 20 ml distilled water and filtered through a filter with a pore size of 0.2 μm, to prepare a substrate solution. 0.5 ml of the prepared BCIP/NBT substrate solution was added to each well and incubated at 37° C. until the tube turned deep violet (usually in 5 to 10 minutes). After incubation was finished, each well was washed 3 times with 1 ml distilled water, followed by removing the washing solution using suction, and the plate was left to air-dry. After drying, each well was observed under a microscope.
Each well was observed under a 40× magnification microscope and a photograph of each well was taken. An enlarged photograph with the scale of 1 mm magnified 40-fold was taken (FIG. 5).
Each of the resulting images was quantified with angiogenesis quantification software (KSW-5000U, Kurabo Industries Ltd.) according to the following method. The area (left in FIG. 6) and length (right in FIG. 6) of tubes formed in each visual field were measured on the scale by computer analysis with various indicators. […]

[1] = test system: transforming growth factor (TGF-β) mRNA; assay: Growth factor mRNA expression level: TGF-β; type: cell-based
[2] = test system: connective tissue growth factor (CTGF) mRNA; assay: Growth factor mRNA expression level: CTGF; type: cell-based

Sequence: MLSLIFLHRLKSMRKRLDRKLRFWHRKNYP (listed as Homo sapiens) [F2 peptide]
- activity in c-fos promoter assay of gene fragments in pCDNA3.1 (c-fos promoter): same activity as that of VEGF
- tube Area % Increase (tube formation; 100 ng/ml): 61%
- tube Length % Increase (tube formation; 100 ng/ml): 53%
- Area (% increase) (tube formation; 1 μg/ml): 41.8%
- Length (% increase) (tube formation; 1 μg/ml): 38.5%
- tube Area % Increase (tube formation; 1 μg/ml): 55%
- tube Length % Increase (tube formation; 1 μg/ml): 50%
- Area (% increase) (tube formation; 10 μg/ml): 131.4%
- Length (% increase) (tube formation; 10 μg/ml): 115.5%
- angiogenesis activity compared with LL-37 peptide (in words) (tube formation; 10 μg/ml, FIG. 15): higher angiogenesis activity at a dose of 10 μg/ml than that of LL-37 peptide
- tube Area % Increase (tube formation; 10 μg/ml): 132%
- tube Length % Increase (tube formation; 10 μg/ml): 116%
- in vitro angiogenesis activity (in words) (tube formation; F2 0.1, 1, 10 μg/ml versus VEGF 50 ng/ml and control peptide): larger blood vessels were formed; also recorded: stronger angiogenesis enhancing activity than that of VEGF
- effect on mRNA level of TGF-β (in words) [1]: did not have any effect
- TGF-b mRNA Increased Amount [times] ([1]; 24 hrs): 2.6 times
- TGF-b mRNA Increased Amount [times] ([1]; 48 hrs): 13.6 times
- TGF-b mRNA Increased Amount [times] ([1]; 72 hrs): 1.6 times
- effect on mRNA level of CTGF (in words) [2]: did not have any effect
- CTGF mRNA Increased Amount [times] ([2]; 24 hrs): 0.2 times
- CTGF mRNA Increased Amount [times] ([2]; 48 hrs): 1.1 times
- CTGF mRNA Increased Amount [times] ([2]; 72 hrs): 0.5 times
